Results as given in patent publication US20040068113A1, “Substituted polycyclic aryl and heteroaryl pyridines useful for selective inhibition of the coagulation cascade” (priority 2003, published 2004).

Key:
Format in all cases: biochemical
[1] = biological target: T1, recombinant soluble tissue factor and recombinant human factor VIIa (TF-VIIa) (Homo sapiens, UniProt P08709); assay: TF-VIIa Assay
T1 construct: purchased American Diagnostica, Greenwich Conn; host or cells: soluble TF made in house in E. coli
T1 sequence (P08709 213-466 limits assumed): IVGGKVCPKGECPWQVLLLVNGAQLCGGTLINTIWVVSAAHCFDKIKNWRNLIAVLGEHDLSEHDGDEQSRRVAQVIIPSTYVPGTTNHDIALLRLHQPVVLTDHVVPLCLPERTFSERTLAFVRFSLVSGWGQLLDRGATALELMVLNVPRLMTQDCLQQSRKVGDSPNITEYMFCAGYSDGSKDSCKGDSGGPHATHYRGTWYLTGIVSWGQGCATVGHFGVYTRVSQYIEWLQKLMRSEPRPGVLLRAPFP
T1 sequence (P08709 61-212 limits assumed): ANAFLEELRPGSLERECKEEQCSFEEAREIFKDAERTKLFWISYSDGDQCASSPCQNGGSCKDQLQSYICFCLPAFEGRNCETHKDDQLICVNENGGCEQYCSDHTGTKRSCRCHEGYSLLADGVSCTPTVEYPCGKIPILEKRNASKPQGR
T1 sequence (P13726 33-251 partner limits assumed): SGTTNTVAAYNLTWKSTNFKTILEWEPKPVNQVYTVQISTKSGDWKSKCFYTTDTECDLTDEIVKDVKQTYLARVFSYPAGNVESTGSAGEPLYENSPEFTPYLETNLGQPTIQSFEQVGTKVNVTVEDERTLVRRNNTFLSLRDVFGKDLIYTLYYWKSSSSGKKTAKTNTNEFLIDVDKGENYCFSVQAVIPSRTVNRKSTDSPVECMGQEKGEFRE
Experimental: In this assay 100 nM recombinant soluble tissue factor and 2 nM recombinant human factor VIIa are added to a 96-well assay plate containing 0.4 mM of the substrate, N-Methylsulfonyl-D-phe-gly-arg-p-nitroaniline and either inhibitor or buffer (5 mM CaCl2, 50 mM Tris-HCl, pH 8.0, 100 mM NaCl, 0.1% BSA). The reaction, in a final volume of 100 ul is measured immediately at 405 nm to determine background absorbance. The plate is incubated at room temperature for 60 min, at which time the rate of hydrolysis of the substrate is measured by monitoring the reaction at 405 nm for the release of p-nitroaniline. Percent inhibition of TF-VIIa activity is calculated from OD405 nm value from the experimental and control sample.
(§1) Recombinant soluble TF, consisting of amino acids 1-219 of the mature protein sequence was expressed in E. coli and purified using a Mono Q Sepharose FPLC. Recombinant human VIIa was purchased from American Diagnostica, Greenwich Conn. and chromogenic substrate N-Methylsulfonyl-D-phe-gly-arg-p-nitroaniline was prepared by American Peptide Company, Inc., Sunnyvale, Calif. Factor Xa was obtained from Enzyme Research Laboratories, South Bend Ind., thrombin from Calbiochem, La Jolla, Calif., and trypsin and L-BAPNA from Sigma, St. Louis Mo. The chromogenic substrates S-2765 and S-2238 were purchased from Chromogenix, Sweden.

[2] = biological target: T2, Human factor Xa (Homo sapiens, UniProt P00742); assay: Xa Assay
T2 construct: purchased Enzyme Research Laboratories, South Bend Ind
T2 sequence (P00742 235-488 limits assumed): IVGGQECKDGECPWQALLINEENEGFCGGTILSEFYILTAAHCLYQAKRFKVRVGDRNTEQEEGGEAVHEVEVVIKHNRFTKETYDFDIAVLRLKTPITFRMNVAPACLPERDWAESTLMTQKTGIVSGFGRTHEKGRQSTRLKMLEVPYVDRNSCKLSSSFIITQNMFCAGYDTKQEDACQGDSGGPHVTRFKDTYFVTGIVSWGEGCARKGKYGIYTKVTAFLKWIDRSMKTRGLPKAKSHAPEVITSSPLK
T2 sequence (P00742 41-179 limits assumed): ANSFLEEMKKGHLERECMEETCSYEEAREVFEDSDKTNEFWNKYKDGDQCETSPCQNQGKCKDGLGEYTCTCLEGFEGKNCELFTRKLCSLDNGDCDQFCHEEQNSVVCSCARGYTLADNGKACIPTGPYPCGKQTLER
Experimental: (§2) Human factor Xa (0.3 nM) and 0.15 mM N-a-Benzyloxycarbonyl-D-arginyl-L-glycyl-L-arginine-p-nitroaniline-dihydrochloride (S-2765) are added to a 96-well assay plate containing either inhibitor or buffer (50 mM Tris-HCl, pH 8.0, 100 mM NaCl, 0.1% BSA). The reaction, in a final volume of 100 ul is measured immediately at 405 nm to determine background absorbance. The plate is incubated at room temperature for 60 min, at which time the rate of hydrolysis of the substrate is measured by monitoring the reaction at 405 nm for the release of p-nitroaniline. Percent inhibition of Xa activity is calculated from OD405 nm value from the experimental and control sample.
as §1

[3] = biological target: Human thrombin (Homo sapiens, UniProt P00734); assay: Thrombin Assay; details: read-out: Thrombin II IC50
Experimental: as §2, with “thrombin (0.28 nm)and 0.06” for “factor Xa (0.3 nM) and 0.15”, “H-D-Phenylalanyl-L-pipecolyl-L-arginine-p-nitroaniline dihydrochloride” for “N-a-Benzyloxycarbonyl-D-arginyl-L-glycyl-L-arginine-p-nitroaniline-dihydrochloride (S-2765)”, “thrombin” for “Xa”, “OD405nm” for “OD405 nm”
as §1

[4] = biological target: T3, Trypsin (type 1× from porcine pancreas) (Sus scrofa, UniProt P00761); assay: Trypsin Assay; details: read-out: Trpysin II IC50
T3 construct: Trypsin (5 ug/ml; type 1× from porcine pancreas); purchased Sigma, St. Louis Mo; host or cells: porcine pancreas
T3 sequence (P00761 9-231): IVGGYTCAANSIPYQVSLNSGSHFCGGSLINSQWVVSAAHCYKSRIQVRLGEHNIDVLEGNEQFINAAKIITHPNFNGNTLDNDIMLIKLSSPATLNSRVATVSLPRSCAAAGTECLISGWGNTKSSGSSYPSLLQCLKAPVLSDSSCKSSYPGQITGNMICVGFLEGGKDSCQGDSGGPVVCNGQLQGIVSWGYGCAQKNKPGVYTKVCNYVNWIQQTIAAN
Experimental: Trypsin (5 ug/ml; type 1× from porcine pancreas) and 0.375 mM N-α-Benzoyl-L-arginine-p-nitroanilide (L-BAPNA) are added to a 96-well assay plate containing either inhibitor or buffer (50 mM Tris-HCl, pH 8.0, 100 mM NaCl, 0.1% BSA). The reactions, in a final volume of 100 ul are measured immediately at 405 nm to determine background absorbance. The plate is incubated at room temperature for 60 min, at which time the rate of hydrolysis of the substrate is measured by monitoring the reaction at 405 nm for the release of p-nitroaniline. Percent inhibition of trypsin activity is calculated from OD405 nm value from the experimental and control sample.
as §1

[5] = read-out: Factor Xa percent inhibition

Row | SMILES | IC50 [1] [nM] | inhibition at 30 µM [2, 5] [%] | IC50 [3] [nM] | IC50 [4] [nM] | inhibition at 100 µM ([2]; @ 100 uM, read-out: Factor Xa percent inhibition) [%] | IC50 [2] [nM] | inhibition at 100 µM ([1]; at 100 uM, read-out: TF-VIIA percent inhibition) [%]
1 | N=C(N)c1ccc(CNC(=O)Cc2nc(NC3CCC3)ccc2-c2cccc(N)c2)cc1 [Example 1] | 2460 | 27 | 710 | 60 | – | – | –
2 | CC(=O)c1cccc(-c2ccc(NC(C)C)[n+]([O-])c2CC(=O)NCc2ccc(C(=N)N)cc2)c1 [Example 10] | 1700 | – | 3000 | 35 | 40 | – | –
3 | CC(C)Nc1ccc(-c2cc(N)cc(N)c2)c(CC(=O)NCc2ccc(C(=N)N)cc2)[n+]1[O-] [Example 7] | 84 | – | 60700 | 22 | – | – | –
4 | CC(C)Nc1ccc(-c2cc(N)cc(C(=O)O)c2)c(CC(=O)NCc2ccc(C(=N)N)cc2)[n+]1[O-] [Example 3] | 720 | – | > 100000 | 158 | – | > 100000 | –
5 | CC(C)Nc1ccc(-c2csc3ccccc23)c(CC(=O)NCc2ccc(C(=N)N)cc2)[n+]1[O-] [Example 11] | 5600 | – | 39500 | 79 | – | 21000 | –
6 | CC(C)Nc1ccc(-c2ccccc2Oc2ccccc2)c(CC(=O)NCc2ccc(C(=N)N)cc2)[n+]1[O-] [Example 6] | 6940 | – | 86500 | 170 | – | > 100000 | –
7 | CC(C)Nc1ccc(-c2cccc(N)c2)c(CC(=O)NCc2ccc(C(=N)N)cc2)[n+]1[O-] [Example 14] | 155 | – | 9900 | < 140 | – | > 100000 | –
8 | CC(C)Nc1ccc(/C=C/c2ccccc2)c(CC(=O)NCc2ccc(C(=N)N)cc2)[n+]1[O-] [Example 12] | – | – | 29000 | 990 | – | – | 23
9 | N=C(N)c1ccc(CNC(=O)Cc2c(-c3cccc(N)c3)ccc(NC3CCC3)[n+]2[O-])cc1 [Example 2] | 70 | 26 | 7130 | 20 | – | – | –
10 | CC(C)Nc1ccc(-c2ccccc2CN2C(=O)c3ccccc3C2=O)c(CC(=O)NCc2ccc(C(=N)N)cc2)[n+]1[O-] [Example 13] | 1420 | – | 12000 | 121 | – | > 100000 | –
11 | CC(C)Nc1ccc(-c2ccccc2OCc2ccccc2)c(CC(=O)NCc2ccc(C(=N)N)cc2)[n+]1[O-] [Example 5] | 2380 | – | 370 | 100 | – | > 100000 | –
12 | CC(C)Nc1ccc(-c2cccc(CO)c2)c(CC(=O)NCc2ccc(C(=N)N)cc2)[n+]1[O-] [Example 9] | 1720 | – | 6600 | 210 | – | > 100000 | –
